Test results taken from US11208405B2, “Pyrrole derivatives as PLK1 inhibitors” (SENTINEL ONCOLOGY LIMITED, priority 2017, dated 2021).
Structures can show the parent of a compound that is named as a salt.

Legend:
Format in all cases: cell-based
KRAS G12V HeLa cell line = assay: Wild-type versus KRAS HeLa cell viability: oncogenic KrasG12V transgene; settings: Homo sapiens; HeLa cells expressing KRAS G12V, 72 hours
Procedure: (§1) Assay to Measure the Effects of Compounds of the Invention on Wild-Type Versus KRAS HeLa Cell Viability
(§2) Identifying synthetic lethal interactions between targeted small molecule therapies and characterised oncogenic mutations is a goal of modern oncology drug discovery efforts. To this end, PLK1-PBD inhibitors were tested on HeLa cells engineered to inducibly express wild-type or oncogenic KrasG12V transgenes using the FLP-in/T-Rex system (Invitrogen). Cells were plated, and then treated with or without Doxycycline to induce transgene expression, and then treated with serially-diluted PBD inhibitors. After 72 hours of incubation, cell viability was assessed using the Cell Titre Blue reagent (Promega) and a BMG Pherastar plate reader. The effect of PBD inhibition on cell viability with either wild-type or oncogenic G12V KRAS was assessed using the graphing/curve-fitting packages in GraphPad Prism.

wild-type HeLa cell line = assay: Wild-type versus KRAS HeLa cell viability: wild-type KRAS transgene; settings: Homo sapiens; HeLa cells expressing wild-type KRAS, 72 hours; read-out: WT GI50
Procedure: as §1, §2

HeLa cells = assay: Arresting cells in mitosis (Mitotic Index, phosphorylated Histone H3 immunofluorescence); settings: HeLa cell line, 24 hours; for EC50: Homo sapiens, Mitotic Index, read-out: EC50
Procedure: Assay to Measure the Effects of Compounds of the Invention on Arresting Cells in Mitosis
Inhibiting the ability of PLK1 to bind to its phosphopeptide binding partners through the PBD causes cells to arrest in mitosis. Experimentally, this is measured by assessing the number of cells which are in mitosis at a certain time after treatment with a PLK1-PBD inhibitor by immunofluorescent detection of phosphorylated Histone H3 (pH3), a marker which is only present in mitotic cells. PLK1-PBD inhibitors are expected to cause a dose-dependent increase in pH3-positive cells, which is reported as Mitotic Index (MI)—the percentage of cells which, at a given time, are positive for this mitotic mark. The following protocol has been used to measure MI: • 1. Plate HeLa cells at 10,000/well in 100 μL/well in clear flat-bottom 96-well plates and incubate overnight. • 2. Immediately prior to treatment, dilute compounds in medium in a 96-well round-bottom plate. Make up all compounds at 5 times final desired concentration on cells, and serially dilute 1:2 across the plate ensuring that there is 100 μL of each concentration (start with 200 μl of the top concentration on the left of the plate). […] Treat cells by adding 25 μL from the compound dilution plate to triplicate wells. • 4. Incubate cells with compound for 24 hours. • 5. After 24 hours, fixation and staining is carried out as follows: • 6. Dilute 37% formaldehyde in PBS to give a 12.95% solution by adding 3.5 mL formaldehyde to 6.5 mL of PBS. • 7. Add 50 μL of formaldehyde fixation solution directly to each well of cells (which already contain 125 μL medium). • 8. Incubate at room temp for 10 minutes. • 9. Remove fixative and add 100 μL/well PBS+0.1% Triton X-100 for 10 minutes. • 10. Aspirate and add 100 μL/well PBS+1% BSA. • 11. Aspirate and add 50 μL/well of primary antibody (anti-PH3 [1:2000]/anti-MPM2 [1:1000]) diluted in PBS+1% BSA. Incubate for 1 hour. • 12. Wash×2 with 100 μL/well PBS+1% BSA. • 13. Add 50 μL/well of secondary antibody plus Hoechst stain (anti-rabbit Alexafluor 488 [1:500]; anti-mouse Alexafluor 546 [1:500]+Hoechst 33342 [1:2500 final concentration=4 μg/mL])diluted in PBS+1% BSA. Incubate for 1 hour. • 14. Wash twice with 100 μL/well PBS+1% BSA. • 15. Aspirate and add 100 μL/well PBS. Plates can be stored at 4° C. in PBS for several weeks before scanning on the Cellomics Arrayscan. […] Scan on Cellomics using Target Activation Bioapplication. • 17. MI data emerging from the Cellomic Bioapplication can be used to plot MI versus compound concentration, and subsequently used to generate an EC50 value for each compound using an appropriate graphing/curve-fitting package such as GraphPad Prism.

HCT116 cells = assay: Effects on HCT116 colorectal cancer cell viability (cell titre blue, 72 hours); settings: Homo sapiens, HCT-116, HCT116 cell line
Procedure: Assay to Measure the Effects of Compounds of the Invention on HCT116 Colorectal Cancer Cell Viability
The following protocol was used to measure the effects of compounds of the invention on HCT116 cell viability.
1. HCT116 cells were grown in RPM11640 media supplemented with Glutamax and 10% FBS in a 37° C./5% CO2 incubator.
2. Growing culture of HCT116 cells were trypsinised, counted and diluted to give 10,000 cells/mL in an appropriate volume, allowing at least 6 mL of cells per plate.
3. 200 μL of PBS were added to all the outer wells of a flat-bottomed (8×12) 96-well TC plate. 100 μL of media were added only to wells in column 11 of the plates (these wells provided a blank for the cell titre blue assay). Two compounds were assayed on each plate.
4. 100 ul of 10,000 cells/mL HCT116s were plated in rows B-G of each plate.
5. The cells were incubated (37° C. 5% CO2) for 24 hours before treating with compounds.
6. An 8 mM compound stock in DMSO was prepared for all compounds to be tested. 2.5 μL of the compound stock was added to 1000 μL growth medium in a 96-well deep well block and serial dilutions were prepared across the plate by transferring 500 μL into wells containing 500 μL growth medium+0.25% DMSO to give eight concentrations of compound (this ensured a constant amount of DMSO at all concentrations of compound). When making up growth medium+DMSO, an amount of 5 ml was allowed per compound to be diluted.
7. 3 rows of cells were treated with 100 μL/well from each row on the dilution plate so that each cell plate is treated with a single compound. This gave a final volume in all wells of 200 μL and a titration of compound from a final concentration of 10 uM down to 78 nM.
8. The cells were incubated (37° C. 5% CO2) for 72 hours.
9. 5 ul cell titre blue reagent (Promega) were added to all wells except the edge wells (which contain PBS only) and incubated (37° C. 5% CO2) for 2.5-3 hours.
10. Fluorescence was measured on a suitable plate reader using a 530-570 nm filter set for excitation and a 580-620 nm filter set for fluorescence emission.
11. Data were analysed using an appropriate graphing package (such as GraphPad Prism). Data were expressed as the concentration of compound causing a 50% inhibition of cell viability or GI50.

SMILES	GI50 (KRAS G12V HeLa cell line) [nM]	GI50 (wild-type HeLa cell line) [nM]	% mitotic cells (HeLa cells) [%]	EC50 (HeLa cells) [nM]	GI50 (HCT116 cells) [nM]
CN(C)CCNC(=O)c1cccc(-c2ccc(-c3ccc(Br)cc3)n2-c2ccccc2C(F)(F)F)c1 [Example 2, 3-[5-(4-Bromophenyl)-1-[2-(trifluoromethyl)phenyl]pyrrol-2-yl]-N-[2-(dimethylamino)ethyl]benzamide Hydrochloride]	50	180	86	860	–
CN(C)CCNC(=O)c1ccc(-c2ccc(-c3ccc(Br)cc3)n2-c2ccccc2C(F)(F)F)cc1 [Example 9, 4-[5-(4-Bromophenyl)-1-[2-(trifluoromethyl)phenyl]pyrrol-2-yl]-N-[2-(dimethylamino)ethyl]benzamide Hydrochloride]	20	50	89	190	30
CN(C)CCNC(=O)c1ccc(Cl)c(-c2ccc(-c3ccc(Br)cc3)n2-c2ccccc2C(F)(F)F)c1 [Example 15, hydrochloride]	380	650	–	–	2180
CN(C)CCNC(=O)c1cccc(-c2ccc(-c3ccc(Br)cc3)n2-c2ccccc2O)c1 [Example 25, hydrochloride]	3580	2510	–	–	3890
CN(C)CCNC(=O)c1ccc(-c2ccc(-c3ccccc3)n2-c2ccccc2C(F)(F)F)cc1 [Example 26, hydrochloride]	70	120	–	–	120
CN(C)CCNC(=O)c1ccc(-c2ccc(-c3ccc(Br)cc3)n2-c2ccccc2C(F)(F)F)cn1 [Example 28]	30	60	–	–	–
CN(C)CCCNC(=O)c1ccc(-c2ccc(-c3ccc(Br)cc3)n2-c2ccccc2C(F)(F)F)cc1 [Example 34]	90	130	–	–	80
CN(C)CCCOc1ccc(-c2ccc(-c3ccc(Br)cc3)n2-c2ccccc2C(F)(F)F)cc1 [Example 35, hydrochloride]	140	210	–	–	220
CN(C)CCNC(=O)c1ccc(-c2ccc(-c3ccc(Br)cc3)n2-c2ccccc2C(F)(F)F)c(Cl)c1 [Example 36, hydrochloride]	60	120	–	–	30
CN(C)CCNC(=O)c1ccc(-c2ccc(-c3ccccc3)n2-c2ccccc2C(F)(F)F)c(Cl)c1 [Example 37, hydrochloride]	20	50	–	–	20
CN(C)CCNC(=O)c1ccc(-c2ccc(-c3ccc(Br)cc3)n2-c2cnccc2C(F)(F)F)cc1 [Example 41]	20	40	–	–	50
CN(C)CCNC(=O)c1ccc(-c2ccc(-c3ccc(F)nc3)n2-c2ccccc2C(F)(F)F)cc1 [Example 42, hydrochloride]	50	130	–	–	380
COc1ccc(-c2ccc(-c3ccc(Br)cc3)n2-c2ccccc2C(F)(F)F)cc1C(=O)NCCN(C)C [Example 53, hydrochloride]	220	340	–	–	560
CN(C)CCNC(=O)c1cccc(-c2ccc(-c3ccc(Br)cc3)n2-c2ccccc2N)c1 [Example 56, hydrochloride]	2520	2190	–	–	2710
CN(C)CCNC(=O)c1ccc(-c2ccc(-c3ccc(C#N)cc3)n2-c2ccccc2C(F)(F)F)cc1 [Example 57]	30	50	–	–	60
CN(C)CCCNC(=O)c1ccc(-c2ccc(-c3ccc(Cl)cc3)n2-c2ccccc2C(F)(F)F)cc1 [Example 58]	20	30	–	–	30
CN(C)CCNC(=O)c1ccc(-c2ccc(-c3ccc(F)cc3)n2-c2ccccc2C(F)(F)F)cc1 [Example 59, hydrochloride]	8	10	–	–	50
CN(C)CCCNC(=O)c1ccc(-c2ccc(-c3ccc(F)cc3)n2-c2ccccc2C(F)(F)F)cc1 [Example 60, hydrochloride]	10	30	–	–	60
CN(C)CCNC(=O)c1ccc(-c2ccc(-c3ccc(Cl)cc3)n2-c2ccccc2C(F)(F)F)nc1 [Example 61, hydrochloride]	5	20	–	–	60
CN(C)CCCNC(=O)c1ccc(-c2ccc(-c3ccc(Cl)cc3)n2-c2ccccc2C(F)(F)F)nc1 [Example 62, hydrochloride]	8	20	–	–	120
CN1CC[C@@H](NC(=O)c2ccc(-c3ccc(-c4ccc(Cl)cc4)n3-c3ccccc3C(F)(F)F)cc2)C1 [Example 70, hydrochloride]	3	5	–	–	20
CN1CC[C@H](NC(=O)c2ccc(-c3ccc(-c4ccc(Cl)cc4)n3-c3ccccc3C(F)(F)F)cc2)C1 [Example 71, hydrochloride]	5	10	–	–	20
CN(C)CCNC(=O)c1ccc(-n2ncc(-c3ccc(Cl)cc3)c2-c2ccccc2C(F)(F)F)cc1 [Example 82, 4-[4-(4-Chlorophenyl)-5-[2-(trifluoromethyl)phenyl]pyrazol-1-yl]-N-[2-(dimethylamino)ethyl]-benzamide Hydrochloride]	10	30	–	–	40
O=C(NCCN1CCNCC1)c1ccc(-c2ccc(-c3ccc(Cl)cc3)n2-c2ccccc2C(F)(F)F)cc1 [Example 87, hydrochloride]	8	20	–	–	60
CN(C)CCNC(=O)Cc1ccc(-c2ccc(-c3ccc(Cl)cc3)n2-c2ccccc2C(F)(F)F)cc1 [Example 91, hydrochloride]	5	10	–	–	10
